pEC50, pIC50: −log10 of the molar value.
Key:
GPR84 [1] = biological target: T1, GPR84 (Homo sapiens, UniProt Q9NQS5); set-up: expressed in transfected cells; settings: Wang 2006; WO 2007/027661; cited from earlier work
GPR84 [2] = biological target: T1, GPR84; assay: Human neutrophil migration inhibition assay, Embelin as chemotactic agent; format: cell-based; settings: for induction of neutrophil chemotaxis: GPR84 agonist used as chemotactic agent; for inhibition at 0.1 µM / inhibition at 1 µM / inhibition at 10 µM: 5 μM Embelin; for inhibition at 0.1 µM: compound 0.1 μM, read-out: Percentage of chemotaxis inhibition (PIN) @ 0.1 μM; for inhibition at 1 µM: compound 1 μM, read-out: Percentage of chemotaxis inhibition (PIN) @ 1 μM; for inhibition at 10 µM: compound 10 μM, read-out: Percentage of chemotaxis inhibition (PIN) @ 10 μM; for pIC50: human neutrophils, Embelin as chemotactic agent, read-out: Embelin-induced neutrophil chemotaxis IC50
GPR84 [3] = biological target: T1, GPR84; assay: Functional GPR84 activation assay: GTP-γS binding assay; format: biochemical; set-up: expressed in transfected cells; settings: membranes over expressing GPR84; 3,3′ di indolylmethane at EC80; read-out: GTPgS binding EC50
Procedure: The following assay can be used for determination of GPR84 activation.
The assay is performed in a 96 well plate where the following reagents were added. […] In a last step, 30 μL of a mixture consisting of membranes-GTPγS-SpA beads is added [mixture consists of 20 μg/well membranes derived from stable cell line over expressing GPR84 (membranes are pre-incubated with 0.1 μM GDP for 15 min at 4° C.), 0.1 nM [^35S]GTPγS (Perkin Elmer, NEG030) and 0.5 mg/well PVT-WGA SpA beads (Perkin Elmer, RPNQ0001)]. All components are diluted in assay buffer containing 20 mM Hepes pH 7.4; 5 mM MgCl2; 250 mM NaCl; 0.05% BSA; 75 ug/mL saponin. Reactions are incubated for 90 min at room temperature followed by centrifugation at 2000 rpm for 15 min. Plates are read on a Topcount reader (Perkin Elmer) immediately after centrifugation (readout time, 1 min/well).

[4] = tested on: IL8-stimulated chemotaxis of neutrophils; assay: Human neutrophil migration assay, IL8 as chemotactic agent; settings: for inhibition at 0.1 µM: read-out: Percentage of chemotaxis inhibition (PIN) @ 0.1 μM; for inhibition at 1 µM: read-out: Percentage of chemotaxis inhibition (PIN) @ 1 μM; for inhibition at 10 µM: read-out: Percentage of chemotaxis inhibition (PIN) @ 10 μM
Procedure: In the neutrophil migration assay, neutrophils, freshly isolated from buffy coats from human volunteers, are treated with a compound for 30 minutes. Subsequently, the neutrophils are transferred to the upper wells of a Corning HTS transwell 96 permeable support system, of which the lower wells are filled with a Embelin solution.
A human buffy coat is diluted with an equal volume of ice cold DPBS. 20 mL of the diluted buffy coat was gently mixed with 4 mL of ACD buffer (140 mM citric acid, 200 mM sodium citrate and 220 mM dextrose). Then, 12 mL of the 6% dextran/0.9% NaCl solution (15 g dextran T2000 and 2.25 g NaCl dissolved in 250 mL H2O) is added to the mixture and the samples are inverted gently up to 20 times. The total volume is transferred to a new recipient and incubated at room temperature for 1 h for complete separation of the two phases to occur. The yellowish supernatant is then transferred to a clean centrifugation tube and centrifuged for 12 minutes at 1300 rpm and 4° C. After centrifugation, the supernatant is discarded and the remaining cell pellet is rapidly resuspended in 12 mL of ice-cold H2O for red blood cell lysis to occur. After 20 seconds, 4 mL of ice-cold 0.6 M KCl is added.
A cell suspension of 8.9×10^6 cells per milliliter is prepared. 20 μL of compound solution in chemotaxis buffer is added to 180 μL cell suspension. The mixture is incubated at 37° C. for 30 minutes with intermediate resuspension of the cells after 15 minutes. […] The receiver well of the transwell system is then filled with 200 μL chemotaxis buffer containing compound and chemotactic agent (Embelin). After incubation at 37° C. in 5% CO2 for 1 h, the upper plate of the transwell system was removed and the cell suspension in the receiver plate is transferred to a 96-well V-bottom plate. 50 μL of DPBS is added to the receiver plate to prevent remaining cells from drying out. The V-bottom plate is centrifuged for 6 minutes at 1500 rpm. The supernatant is removed and the cells are resuspended in 50 μL DPBS. The cells are then transferred back to the receiver plate of the transwell system. […] The plate is incubated for 10 minutes in the dark, while shaking. 170 μL of cell lysate is then transferred to a white 96-well plate and luminescence is measured. The detected luminescent signal is considered as linearly related to the number of cells having migrated from the upper well to the receiver well.
The same assay as described above is also performed using IL8 (25 ng/mL) as a chemotactic agent instead of Embelin.

[5] = tested on: tobacco smoke-induced pulmonary inflammation; assay: Mouse tobacco smoke model; format: in vivo; settings: C57BL/6J mice, 4 daily tobacco smoke exposures; data not shown
Excerpt: To investigate test compounds, animals are divided into several groups: intact (no treatment, n=5), diseased (TS; vehicle alone, n=10), Roflumilast as reference (TS; Roflumilast n=10), and the test compound (TS; […]=10). […] At the end of 4 days, the numbers of macrophages, epithelial cells, neutrophils and lymphocytes are counted in the BAL. BAL was further analyzed for gene expression and protein level. Lung tissue is dissected for histological analysis, gene expression and protein level measurement.

[6] = tested on: RAW264.7 murine macrophage-like cells; settings: RAW264.7 cells stimulated with LPS; cited from earlier work
[7] = tested on: chronic DSS-induced colitis; assay: Mouse chronic DSS-induced inflammatory bowel disease model; format: in vivo; settings: female BALB/c mice, p.o., data not shown
Excerpt: The compounds identified using the assay method described in Example 2, or others herein, can be further validated in vivo using known disease models. The mouse chronic DSS-induced inflammatory bowel disease model (IBD) is a well validated disease model for inflammatory bowel disease (Wirtz S. et al., 2007 Nature Protocols 2, 541-546; Sina C. et al., 2009 J. Immunol 183 7514-7522).
To induce a chronic colitis, female BALB/c mice are fed with 4% dextran sodium sulfate (DSS) dissolved in drinking water for 4 days, followed by 3 days of regular drinking water. This cycle is repeated three times. This protocol allows inducing a strong colitis while avoiding high mortality rates. Animals are divided into several groups: • intact (water; vehicle alone, n=10), • diseased (DSS; vehicle alone, n=10), • sulfazalazine used as reference (DSS; sulfazalazine, p.o., n=10) and • the tested compound (DSS; test cpd, p.o., n=10).
Clinical parameters are measured every other day. The disease activity index (DAI) is a composite measure combining of the individual scores for weight loss, stool consistency and rectal bleeding. Mice are sacrificed at day 20 of the experiment according to the protocol introduced by Sina et al. (2009). At sacrifice time, the complete colon is removed and rinsed with sterile PBS. […]

T1 sequence (Q9NQS5 whole entry): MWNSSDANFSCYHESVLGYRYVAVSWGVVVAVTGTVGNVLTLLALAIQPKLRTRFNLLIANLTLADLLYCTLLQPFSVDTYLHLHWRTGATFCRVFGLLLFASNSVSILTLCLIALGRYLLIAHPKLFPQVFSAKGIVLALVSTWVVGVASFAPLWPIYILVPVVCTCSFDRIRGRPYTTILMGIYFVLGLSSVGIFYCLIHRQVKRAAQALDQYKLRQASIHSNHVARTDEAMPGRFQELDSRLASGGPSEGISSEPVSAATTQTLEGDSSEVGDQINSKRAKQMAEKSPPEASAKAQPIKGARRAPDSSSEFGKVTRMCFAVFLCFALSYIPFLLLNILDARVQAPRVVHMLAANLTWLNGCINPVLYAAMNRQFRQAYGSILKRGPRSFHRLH

| Compound | GPR84 agonist activity (GPR84 [1]) | induction of neutrophil chemotaxis (GPR84 [2]) | pEC50 (GPR84 [3]) | inhibition at 0.1 µM [4] | inhibition at 1 µM [4] | inhibition at 10 µM [4] | inhibition at 0.1 µM (GPR84 [2]) | inhibition at 1 µM (GPR84 [2]) | inhibition at 10 µM (GPR84 [2]) | pIC50 (GPR84 [2]) | percentage inhibition of neutrophil counts in BAL [5] | secretion of interleukin-12 p40 subunit (IL-12 p40) [6] | effect against chronic inflammatory bowel disease [7] |
| --- | --- | --- | --- | --- | --- | --- | --- | --- | --- | --- | --- | --- | --- |
| c1ccc2c(Cc3c[nH]c4ccccc34)c[nH]c2c1 [3,3′ di indolylmethane, reference compound] | some GPR84 agonist activity | induce neutrophil chemotaxis |  |  |  |  |  |  |  |  |  |  |  |
| O=c1nc(OCC2COCCO2)cc2n1CCc1cc(OCc3noc(C4CC4)n3)ccc1-2 (stereo not drawn) [Cpd 1, 9-(5-Cyclopropyl-[1,2,4]oxadiazol-3-ylmethoxy)-2-([1,4]dioxan-2-ylmethoxy)-6,7-dihydro-pyrimido[6,1-a]isoquinolin-4-one] |  |  | 7.44 | 1% | -11% | 17% | 69% | 86% | 89% | 7.98 |  |  |  |
| CCCC(O)C#Cc1ccc2c(c1)CCn1c-2cc(OCC2COCCO2)nc1=O (stereo not drawn) [Cpd 2, 2-([1,4]Dioxan-2-ylmethoxy)-9-(3-hydroxy-hex-1-ynyl)-6,7-dihydro-pyrimido[6,1-a]isoquinolin-4-one] |  |  | 7.40 | 13% | -6% | 20% | 86% | 94% | 90% | 8.56 |  |  |  |
| O=c1nc(OCC2COCCO2)cc2n1CCc1cc(C#CCNc3ccccc3)ccc1-2 (stereo not drawn) [Cpd 3, 2-([1,4]Dioxan-2-ylmethoxy)-9-(3-phenylamino-prop-1-ynyl)-6,7-dihydro-pyrimido[6,1-a]isoquinolin-4-one] |  |  | 7.60 | 2% | 1% | -13% | 38% | 81% | 72% | 8.20 |  |  |  |
| O=c1nc(OCC2COCCO2)cc2n1CCc1cc(COC3CCCC3)ccc1-2 (stereo not drawn) [Cpd 4, 9-Cyclopentyloxymethyl-2-([1,4]dioxan-2-ylmethoxy)-6,7-dihydro-pyrimido[6,1-a]isoquinolin-4-one] |  |  |  | 3% | 3% | 19% |  |  |  |  |  |  |  |
| CC(C)C#Cc1ccc2c(c1)CCn1c-2cc(OC[C@@H]2COCCO2)nc1=O [Cpd 5, 2-((S)-1-[1,4]Dioxan-2-ylmethoxy)-9-(3-methyl-but-1-ynyl)-6,7-dihydro-pyrimido[6,1-a]isoquinolin-4-one] |  |  | 7.11 | 30% | 29% | 48% | 73% | 97% | 96% | 7.21 |  |  |  |
| O=c1nc(OC[C@H]2COCCO2)cc2n1CCc1cc(COC3CCCC3)ccc1-2 [Cpd 6, 9-Cyclopentyloxymethyl-2-((R)-1-[1,4]dioxan-2-ylmethoxy)-6,7-dihydro-pyrimido[6,1-a]isoquinolin-4-one] |  |  |  | 20% | 15% | 35% |  |  |  |  |  |  |  |
| O=c1nc(OCC2COCCO2)cc2n1CCc1cc(CCC(O)c3cccnc3)ccc1-2 (stereo not drawn) [Cpd 7, 2-([1,4]Dioxan-2-ylmethoxy)-9-(3-hydroxy-3-pyridin-3-yl-propyl)-6,7-dihydro-pyrimido[6,1-a]isoquinolin-4-one] |  |  | 7.39 | 18% | 22% | 13% | 54% | 90% | 81% | 7.08 |  |  |  |
| CCC(C)(C)CNc1ccc2c(c1)CCn1c-2cc(OC[C@@H]2COCCO2)nc1=O [Cpd 8, 9-(2,2-Dimethyl-butylamino)-2-((S)-1-[1,4]dioxan-2-ylmethoxy)-6,7-dihydro-pyrimido[6,1-a]isoquinolin-4-one] |  |  | 7.16 | 9% | 15% | 55% | 52% | 95% | 103% | 7.38 |  |  |  |
| O=c1nc(OC[C@@H]2COCCO2)cc2n1CCc1cc(OCC3CCCCO3)ccc1-2 (stereo partly drawn) [Cpd 9, 2-((S)-1-[1,4]Dioxan-2-ylmethoxy)-9-(tetrahydro-pyran-2-ylmethoxy)-6,7-dihydro-pyrimido[6,1-a]isoquinolin-4-one] |  |  | 7.12 | 25% | 28% | 24% | 64% | 94% | 88% | 7.39 |  |  |  |
| O=c1nc(OC[C@@H]2COCCO2)cc2n1CCc1cc(CCCNc3ccccc3)ccc1-2 [Cpd 10, 2-((S)-1-[1,4]Dioxan-2-ylmethoxy)-9-(3-phenylamino-propyl)-6,7-dihydro-pyrimido[6,1-a]isoquinolin-4-one] |  |  | 8.10 | 13% | 7% | 24% | 71% | 87% | 80% | 8.03 |  |  |  |
| CC(O)CCCc1ccc2c(c1)CCn1c-2cc(OC[C@@H]2COCCO2)nc1=O (stereo partly drawn) [Cpd 11, 2-((S)-1-[1,4]Dioxan-2-ylmethoxy)-9-(4-hydroxy-pentyl)-6,7-dihydro-pyrimido[6,1-a]isoquinolin-4-one] |  |  |  | 7% | 0% | 12% | 66% | 90% | 86% | 8.41 |  |  |  |
| CCCCCCCCCCCC1=C(O)C(=O)C=C(O)C1=O [Embelin, 2,5-dihydroxy-3-undecyl-2,5-cyclohexadiene-1,4-dione, reference compound] | some GPR84 agonist activity | induce neutrophil chemotaxis |  |  |  |  |  |  |  |  |  |  |  |
| O=C(Nc1c(Cl)cncc1Cl)c1ccc(OC(F)F)c(OCC2CC2)c1 [Roflumilast] |  |  |  |  |  |  |  |  |  |  | around 60% |  |  |
| CCCCCCCCCC(=O)O [capric acid] |  |  |  |  |  |  |  |  |  |  |  | dose-dependently increased |  |
| CCCCCCCCCCCC(=O)O [lauric acid] |  |  |  |  |  |  |  |  |  |  |  | dose-dependently increased |  |
| CCCCCCCCCC(=O)[O-].[Na+] [sodium decanoate, reference compound] |  | induce neutrophil chemotaxis |  |  |  |  |  |  |  |  |  |  |  |
| O=C(O)c1cc(/N=N/c2ccc(S(=O)(=O)Nc3ccccn3)cc2)ccc1O [sulfazalazine] |  |  |  |  |  |  |  |  |  |  |  |  | protective effect |
| CCCCCCCCCCC(=O)O [undecanoic acid] |  |  |  |  |  |  |  |  |  |  |  | dose-dependently increased |  |

Source: US9945843B2, “Methods for identifying compounds that inhibit G protein-coupled receptor (GPR84) agonist-stimulated chemotaxis” (GALAPAGOS NV, priority 2011, dated 2018)
